From patent US9120808B2 (NABRIVA THERAPEUTICS AG, priority 2009, dated 2015)
Like-named read-outs stand apart in the source and are kept apart here.

Legend:
[1] = system: TEM-1 producing E. coli B269 (clinical isolate); type: in vivo; conditions: s.c.; 0.5 mg/kg cefepime (0 and 3 h) + 20 mg/kg Example 49 (0, 1.5, 3, 4.5 h after infection)
Description: A sepsis model in female NMRI mice was employed using TEM-1 producing E. coli B269 (clinical isolate) as the infecting bacterial strain. In general, the final inoculum given in 0.3 ml per mouse intraperitoneally represented a 100% lethal concentration for systemic infections within 48 hours.
The subcutaneous treatment schedule for the antibiotic at various doses was simultaneous and 3 hours after infection.

TEM-1 β-lactamase = TEM-1 β-lactamase (Escherichia coli, UniProt P62593); test: Cell-free β-lactamase inhibition study (nitrocefin hydrolysis); type: biochemical; conditions: 10 min pre-incubation at 37° C., nitrocefin substrate
Chain of TEM-1 β-lactamase (P62593 whole entry, looked up): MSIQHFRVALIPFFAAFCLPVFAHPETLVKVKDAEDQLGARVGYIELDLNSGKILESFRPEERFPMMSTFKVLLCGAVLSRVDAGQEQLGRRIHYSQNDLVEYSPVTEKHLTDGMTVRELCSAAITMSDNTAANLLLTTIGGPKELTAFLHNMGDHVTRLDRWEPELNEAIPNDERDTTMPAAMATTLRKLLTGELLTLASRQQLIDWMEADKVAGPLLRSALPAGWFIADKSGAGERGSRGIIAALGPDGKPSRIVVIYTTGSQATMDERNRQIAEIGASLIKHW
Description: Cell-Free-β-Lactamase Inhibition Study
Assays are performed with β-lactamases expressed in the pET system (Novagen, San Diego, Calif.) without signal peptides. They contain an N-terminal hexa-Histidine tag that is used for purification on Ni-NTA (Qiagen, Hilden, Germany). The compounds are prepared as 50 mM stocks in DMSO and diluted into buffer P1 (50 mM phosphate, pH 7) to a final concentration of 10% DMSO. All further dilutions are done in P2 (P1 with 10% DMSO). Enzyme and compound dilutions are pre-incubated for 10 min at 37° C. and the reaction is started with the addition of pre-warmed (37° C.) nitrocefin at a final concentration of […]. […] The initial velocity is determined and IC50 values are calculated using non-linear regression and sigmoidal dose response analysis with the PRISM 4.0 software (Graphpad Software Inc., San Diego, Calif.).

Pharmacokinetics in mice = type: in vivo; conditions: for AUC / Cmax: mouse, plasma
Description: The values of the PK parameters were calculated by standard noncompartmental analysis, using Kinetica 4.2 (InnaPhase). Plasma concentration values below the limit of quantification were taken as 0. The maximum plasma concentration (Cmax) and the time to reach Cmax were determined from observed data.

C. freundii 7023771 = test: In-vitro synergy test, MIC by broth/agar dilution; type: cell-based
Description: (§1) Stock solutions of the test compounds and control antibiotics are prepared in distilled water according to the NCCLS guidelines (NCCLS (National Commitee for Clinical Laboratory Standards). 12(3). 2000. M7-A4). […] All drug weights are corrected for salt forms and refer to the pure drug substance.
(§2) All tested strains and clinical isolates are either purchased from the American Type Culture Collection (ATCC), kindly supplied by A. Georgopoulos (Vienna General Hospital, Vienna, Austria), and I. Chopra (Leeds, UK), collected from the SENTRY study (F. J. Schmitz, Minden, Germany) or from the Sandoz culture collection.
(§3) All strain identities are confirmed by BBL Crystal™ Identification Systems (Beckton Dickinson, Cockeysville, Md., USA). Stock cultures are prepared from broth cultures grown at 35° C. for 18-22 h without agitation and subsequent addition of 5% DMSO (v/v, final concentration) as cryoprotectant and stored frozen in liquid nitrogen.
(§4) Bacterial susceptibility, expressed as MIC, is determined by microbroth dilution technique and agar dilution technique as recommended by the approved standard reference recommendations of the NCCLS.
(§5) The inoculum is prepared by the direct colony suspension method as described by NCCLS. For this purpose the bacteria are grown on blood agar plates at 35° C. for 24 h. Subsequently 3-5 single colonies are suspended in 5 ml liquid medium. The bacteria are then incubated for 5 h to reach the logarithmic growth phase and subsequently diluted with medium or NaCl (0.86%) to reach a final living cell count equivalent to 10^8 CFU/ml. Then the bacterial suspension is diluted 1:10 and 1 μl (10^4 CFU; final inoculoum 10^5 CFU/ml) is transferred to the test medium containing the antibacterial substances by a multipoint inoculator (Dynatech, Chantilly, Va., USA). The plates are then incubated at 35° C. for 24 h. The MIC is determined optically and defined as the minimum inhibitory concentration [μg/ml] of antibiotic at which no visible bacterial growth occurs.

[2] = system: K. pneumoniae ATCC 700603; test: In-vitro synergy test, MIC by broth/agar dilution; type: cell-based
Description: as §1, §2, §3, §4, §5

E. cloacae 83989 = test: In-vitro synergy test, MIC by broth/agar dilution; type: cell-based
Description: as §1, §2, §3, §4, §5

[3] = MIC of cefepime with 17 μM Example 49
[4] = MIC of ceftazidime with 68 μM Example 49

In the case of `CC1CC(=C2O[C@@H]3CC(=O)N3C2C(=O)O)C(=O)O1` (single isomer, unassigned) [Example 49], the “survival, combination of cefepime and Example 49” value [1] is reported as “survival of all animals”, the IC50 (TEM-1 β-lactamase) is reported as 1.8 nM and the AUC (Pharmacokinetics in mice; oral 25 mg/kg) is reported as 1090 ng·h/mL. The Cmax (Pharmacokinetics in mice; oral 25 mg/kg (cremophor EL/ethanol/glucose in saline), read-out: peak plasma concentration (Cmax)) was 2220 ng/mL, the AUC (Pharmacokinetics in mice; sc, subcutaneous 10 mg/kg) was 2090 ng·h/mL and the Cmax (Pharmacokinetics in mice; sc, subcutaneous 10 mg/kg (0.05 M NaPO4 buffer, pH 7.2), read-out: Cmax) was 5600 ng/mL. For the same molecule, the Thalf (Pharmacokinetics in mice; oral 25 mg/kg) was 18.90 min, the “time to reach Cmax” value (Pharmacokinetics in mice; oral 25 mg/kg) was 15 min and the Thalf (Pharmacokinetics in mice; subcutaneous 10 mg/kg) was 12.27 min. For the same molecule, the “time to reach Cmax” value (Pharmacokinetics in mice; subcutaneous 10 mg/kg) was 5 min, the “Cefepime MIC, +17 μM Example 49” value (C. freundii 7023771; [3]) was 0.4 µg/mL and the “Ceftazidime MIC, +68 μM Example 49” value (C. freundii 7023771; [4]) was 3.2 µg/mL. The “Amoxicillin MIC, +68 μM Example 49” value ([2]; MIC of amoxicillin with 68 μM Example 49) was 3.2 µg/mL, the “Cefepime MIC, +17 μM Example 49” value [2, 3] was 0.2 µg/mL and the “Ceftazidime MIC, +68 μM Example 49” value [2, 4] was 0.2 µg/mL. The “Cefepime MIC, +17 μM Example 49” value (E. cloacae 83989; [3]) was 0.8 µg/mL and the “Ceftazidime MIC, +68 μM Example 49” value (E. cloacae 83989; [4]) was 12.8 µg/mL.
In the case of `CC1(C)S[C@@H]2[C@H](NC(=O)[C@H](N)c3ccc(O)cc3)C(=O)N2[C@H]1C(=O)O` [Amoxicillin, reference compound], the “Amoxicillin MIC, alone” value ([2]; antibiotic alone) is reported as over 25.6 µg/mL.
With `CO/N=C(\C(=O)N[C@@H]1C(=O)N2C(C(=O)[O-])=C(C[N+]3(C)CCCC3)CS[C@H]12)c1csc(N)n1` [Cefepime, reference compound] the “Cefepime MIC, alone” value (C. freundii 7023771; antibiotic alone) was 0.8 µg/mL and the “Cefepime MIC, alone” value ([2]; antibiotic alone) was 0.8 µg/mL.
In the case of `CC(C)(O/N=C(\C(=O)N[C@@H]1C(=O)N2C(C(=O)[O-])=C(C[n+]3ccccc3)CS[C@H]12)c1csc(N)n1)C(=O)O` [Ceftazidime, reference compound], the “Ceftazidime MIC, alone” value (C. freundii 7023771; antibiotic alone) is reported as over 25.6 µg/mL, the “Ceftazidime MIC, alone” value ([2]; antibiotic alone) is reported as over 25.6 µg/mL and the “Ceftazidime MIC, alone” value (E. cloacae 83989; antibiotic alone) is reported as over 25.6 µg/mL.
